Data taken from patent US20230113037A1 (Bayer Aktiengesellschaft, priority 2019, published 2023).

The molecules below were run against T1, AHR (Homo sapiens, UniProt P35869) (assay: In vitro assay 1: antagonism in human cell line (AHR transactivation, firefly luciferase reporter, kynurenic acid prestimulated)). Conditions: AHR Antagonism Human IC50 [M].
T1 construct: U87 MG glioblastoma cells (ATCC #HTB-14) endogenously expressing AHR; endogenous in cells; host or cells: U87 MG glioblastoma cells (ATCC #HTB-14)
T1 sequence (P35869 11-848): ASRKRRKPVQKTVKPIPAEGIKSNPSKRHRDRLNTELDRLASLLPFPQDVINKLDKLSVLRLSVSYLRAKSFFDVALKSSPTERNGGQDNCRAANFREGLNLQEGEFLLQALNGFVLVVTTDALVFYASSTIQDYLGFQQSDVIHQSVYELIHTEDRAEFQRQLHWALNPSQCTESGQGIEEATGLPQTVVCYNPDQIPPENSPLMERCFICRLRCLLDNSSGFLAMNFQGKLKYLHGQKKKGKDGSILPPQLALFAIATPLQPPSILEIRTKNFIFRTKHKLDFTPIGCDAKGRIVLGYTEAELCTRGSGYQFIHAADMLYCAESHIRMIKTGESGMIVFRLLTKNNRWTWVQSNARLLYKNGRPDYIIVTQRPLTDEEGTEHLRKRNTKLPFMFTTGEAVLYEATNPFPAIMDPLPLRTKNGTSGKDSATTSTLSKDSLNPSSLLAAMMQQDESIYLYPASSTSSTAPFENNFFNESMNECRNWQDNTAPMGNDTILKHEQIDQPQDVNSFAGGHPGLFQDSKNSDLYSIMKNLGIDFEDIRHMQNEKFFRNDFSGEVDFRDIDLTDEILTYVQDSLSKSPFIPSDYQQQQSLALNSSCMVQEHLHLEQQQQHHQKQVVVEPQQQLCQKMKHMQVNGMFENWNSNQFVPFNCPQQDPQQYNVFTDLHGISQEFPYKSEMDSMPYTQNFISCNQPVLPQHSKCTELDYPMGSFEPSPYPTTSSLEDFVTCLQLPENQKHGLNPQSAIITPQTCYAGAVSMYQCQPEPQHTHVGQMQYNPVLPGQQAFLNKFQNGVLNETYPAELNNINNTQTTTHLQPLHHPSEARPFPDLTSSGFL
Format: cell-based
Experimental: Examples were tested in selected biological assays one or more times. When tested more than once, data are reported as either average values or as median values, wherein • the average value, also referred to as the arithmetic mean value, represents the sum of the values obtained divided by the number of times tested, and • the median value represents the middle number of the group of values when ranked in ascending or descending order. If the number of values in the data set is odd, the median is the middle value. If the number of values in the data set is even, the median is the arithmetic mean of the two middle values.
Transactivation assays were carried out in U87 MG glioblastoma cells (ATCC #HTB-14) endogenously expressing AHR. In addition the cells were stably transfected with an AHR inducible firefly luciferase reporter gene construct that carried AHR-binding sites (DRE) in its promoter and a renilla reporter gene construct with constitutively active promoter. Kynurenic acid is an endogenous AHR activating ligand and was used to prestimulate test cells prior to testing the antagonistic properties of compounds.
As positive inhibition control cells supplemented with 150 μM kynurenic acid were incubated in presence of 5 μM Staurosporin. Normalization was done by positive and negative controls.
Firefly luciferase and Renilla activity was determined by the DualGlo Luciferase Assay System (Promega, #2920). Renilla activity was used to assess toxic effects of compounds.

| IC50 [M] | Structure (SMILES) |
| --- | --- |
| 6.89e-09 | C[S+]([O-])c1ccccc1-c1nc2c3ccccc3nc(N[C@@H]3CCCCNC3=O)n2n1 (mixture of isomers) [Example 648, (3R)-3-[(2-{2-[methanesulfinyl]phenyl}[1,2,4]triazolo[1,5-c]quinazolin-5-yl)amino]azepan-2-one] |
| 9.92e-10 | O=C1NCCCC[C@H]1Nc1nc2ccccc2c2nc(-c3ccc(Cl)cc3OC(F)F)nn12 [Example 525, (3R)-3-({2-[4-chloro-2-(difluoromethoxy)phenyl][1,2,4]triazolo[1,5-c]quinazolin-5-yl}amino)azepan-2-one] |
| 2.8e-09 | O=C1NCCCCCC1Nc1nc2ccccc2c2nc(-c3ccc(Cl)cc3OC(F)F)nn12 (stereo not drawn) [Example 529, 3-({2-[4-chloro-2-(difluoromethoxy)phenyl][1,2,4]triazolo[1,5-c]quinazolin-5-yl}amino)azocan-2-one] |
| > 2e-05 | CN1CCCC[C@H](Nc2nc3ccccc3c3nc(-c4ccc(Cl)cc4OC(F)F)nn23)C1=O [Example 530, (3S)-3-({2-[4-chloro-2-(difluoromethoxy)phenyl][1,2,4]triazolo[1,5-c]quinazolin-5-yl}amino)-1-methylazepan-2-one] |
| 1.29e-09 | CC[C@@H](Nc1nc2ccccc2c2nc(-c3ccc(Cl)cc3OC(F)F)nn12)C(N)=O [Example 531, (2R)-2-({2-[4-chloro-2-(difluoromethoxy)phenyl][1,2,4]triazolo[1,5-c]quinazolin-5-yl}amino)butanamide] |
| 2.24e-06 | Cn1cc(-c2nc3c4cc(C(F)(F)F)ccc4nc(N[C@@H]4CCCCNC4=O)n3n2)cn1 [Example 546, (3R)-3-{[2-(1-methyl-1H-pyrazol-4-yl)-9-(trifluoromethyl)[1,2,4]triazolo[1,5-c]quinazolin-5-yl]amino}azepan-2-one] |
| > 5.71e-06 | COc1ccc(-c2nc3c4cc(C5CC5)ccc4nc(N[C@@H]4CCCCNC4=O)n3n2)cc1 [Example 547, (3R)-3-{[9-cyclopropyl-2-(4-methoxyphenyl)[1,2,4]triazolo[1,5-c]quinazolin-5-yl]amino}azepan-2-one] |
| 5.35e-06 | COc1ccc2c(c1)nc(N[C@@H]1CCCCNC1=O)n1nc(-c3cnn(C)c3)nc21 [Example 550] |
| 1.69e-09 | O=C1NCCCC[C@H]1Nc1nc2c(C(F)(F)F)cccc2c2nc(-c3cccc(F)c3)nn12 [Example 581, (3R)-3-{[2-(3-fluorophenyl)-7-(trifluoromethyl)[1,2,4]triazolo[1,5-c]quinazolin-5-yl]amino}azepan-2-one] |
| 2.79e-07 | Cn1cc(-c2nc3c4cccc(C(F)(F)F)c4nc(N[C@@H]4CCNC4=O)n3n2)cn1 [Example 586, (3R)-3-{[2-(1-methyl-1H-pyrazol-4-yl)-7-(trifluoromethyl)[1,2,4]triazolo[1,5-c]quinazolin-5-yl]amino}pyrrolidin-2-one] |
| > 2e-05 | COc1cc2nc(N[C@@H]3CCCCNC3=O)n3nc(-c4cnn(C)c4)nc3c2cc1OC [Example 589, (3R)-3-{[8,9-dimethoxy-2-(1-methyl-1H-pyrazol-4-yl)[1,2,4]triazolo[1,5-c]quinazolin-5-yl]amino}azepan-2-one] |
| 3.65e-07 | COc1ccc(-c2nc3c4cc(OC)c(OC)cc4nc(N[C@@H]4CCCCNC4=O)n3n2)cc1 [Example 590, (3R)-3-{[8,9-dimethoxy-2-(4-methoxyphenyl)[1,2,4]triazolo[1,5-c]quinazolin-5-yl]amino}azepan-2-one] |
| 8.44e-08 | Nc1ccc(-c2nc3c4ccccc4nc(N[C@@H]4CCCCNC4=O)n3n2)cc1 [Example 620, (3R)-3-{[2-(4-aminophenyl)[1,2,4]triazolo[1,5-c]quinazolin-5-yl]amino}azepan-2-one] |
| 9.2e-10 | Cc1cc(-c2nc3c4ccccc4nc(N[C@@H]4CCCCNC4=O)n3n2)ccc1F [Example 626, (3R)-3-{[2-(4-fluoro-3-methylphenyl)[1,2,4]triazolo[1,5-c]quinazolin-5-yl]amino}azepan-2-one] |
| 1.09e-05 | COc1ccc(-c2nc3c4c(C(C)C)cccc4nc(N[C@@H]4CCCCNC4=O)n3n2)cc1 [Example 726, (3R)-3-{[2-(4-methoxyphenyl)-10-(propan-2-yl)[1,2,4]triazolo[1,5-c]quinazolin-5-yl]amino}azepan-2-one] |
| 1.65e-09 | O=C1NCCCC[C@H]1Nc1nc2c(C(F)(F)F)cccc2c2nc(-c3nc(C4CC4)cs3)nn12 [Example 747, (3R)-3-{[2-(4-cyclopropyl-1,3-thiazol-2-yl)-7-(trifluoromethyl)[1,2,4]triazolo[1,5-c]quinazolin-5-yl]amino}azepan-2-one] |
| 9.19e-06 | COc1cccc2c1nc(N[C@@H]1CCCCNC1=O)n1nc(-c3cn[nH]c3)nc21 [Example 755, (3R)-3-{[7-methoxy-2-(1H-pyrazol-4-yl)[1,2,4]triazolo[1,5-c]quinazolin-5-yl]amino}azepan-2-one] |

Same assay, conditions: AHR Antagonism Human IC50 [M], firefly luciferase reporter

| IC50 [M] | Structure (SMILES) |
| --- | --- |
| 2.04e-09 | COc1ccc(-c2nc3c4cccc(S(C)(=N)=O)c4nc(N[C@@H]4CCCCNC4=O)n3n2)cc1 (mixture of isomers) [Example 853, (3R)-3-{[7-(S-methanesulfonimidoyl)-2-(4-methoxyphenyl)[1,2,4]triazolo[1,5-c]quinazolin-5-yl]amino}azepan-2-one] |
| 5.39e-08 | C[C@@H](Nc1nc2c(C(F)(F)F)cccc2c2nc(-c3cnn(C)c3)nn12)C(=O)N1CCC(N(C)C)C1 (mixture of isomers) [Example 876, (2R)-1-[(3R/S)-3-(dimethylamino)pyrrolidin-1-yl]-2-{[2-(1-methyl-1H-pyrazol-4-yl)-7-(trifluoromethyl)[1,2,4]triazolo[1,5-c]quinazolin-5-yl]amino}propan-1-one] |
| 1.34e-07 | Cn1cc(-c2nc3c4cccc(C(C)(C)O)c4nc(N[C@@H]4CCCCNC4=O)n3n2)cn1 [Example 861, (3R)-3-{[7-(2-hydroxypropan-2-yl)-2-(1-methyl-1H-pyrazol-4-yl)[1,2,4]triazolo[1,5-c]quinazolin-5-yl]amino}azepan-2-one] |
| > 2e-05 | C[C@@H](Nc1nc2c(C(F)(F)F)cccc2c2nc(-c3cnn(C)c3)nn12)C(=O)O [Example 869, N-[2-(1-methyl-1H-pyrazol-4-yl)-7-(trifluoromethyl)[1,2,4]triazolo[1,5-c]quinazolin-5-yl]-D-alanine] |

What follows are molecules tested against T2, AHR (Mus musculus, UniProt P30561) (assay: In vitro assay 3: antagonism in mouse cell line (AHR transactivation, firefly luciferase reporter, kynurenic acid prestimulated)). Conditions: Hepa 1c1c7 cells, 200 μM kynurenic acid, 20 hours, firefly luciferase reporter, read-out: AHR Antagonism Mouse IC50.
T2 sequence (P30561 1-848 P471L/N533S/M589L): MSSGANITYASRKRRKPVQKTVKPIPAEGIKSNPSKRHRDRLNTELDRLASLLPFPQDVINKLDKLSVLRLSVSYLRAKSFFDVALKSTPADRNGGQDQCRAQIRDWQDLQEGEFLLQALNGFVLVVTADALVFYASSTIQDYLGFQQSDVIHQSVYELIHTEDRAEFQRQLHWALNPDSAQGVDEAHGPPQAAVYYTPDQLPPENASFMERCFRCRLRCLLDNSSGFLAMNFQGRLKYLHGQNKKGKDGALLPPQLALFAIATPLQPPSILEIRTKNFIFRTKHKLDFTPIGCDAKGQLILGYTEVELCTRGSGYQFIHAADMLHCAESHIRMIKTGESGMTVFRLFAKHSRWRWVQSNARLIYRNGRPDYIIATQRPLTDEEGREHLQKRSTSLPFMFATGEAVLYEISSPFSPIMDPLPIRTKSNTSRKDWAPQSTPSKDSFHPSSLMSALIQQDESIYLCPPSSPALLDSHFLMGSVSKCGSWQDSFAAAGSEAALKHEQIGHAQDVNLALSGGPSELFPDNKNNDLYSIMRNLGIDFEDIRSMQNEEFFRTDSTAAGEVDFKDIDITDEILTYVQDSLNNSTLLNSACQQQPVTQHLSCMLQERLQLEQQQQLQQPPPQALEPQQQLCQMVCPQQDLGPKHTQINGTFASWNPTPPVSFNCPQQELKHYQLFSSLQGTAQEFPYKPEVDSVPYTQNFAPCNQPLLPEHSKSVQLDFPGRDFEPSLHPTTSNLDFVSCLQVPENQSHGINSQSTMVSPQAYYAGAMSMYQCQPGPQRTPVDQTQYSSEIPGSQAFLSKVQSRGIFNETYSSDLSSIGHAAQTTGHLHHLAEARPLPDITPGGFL
Format: cell-based
Outline: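 Mouse cells stably carrying a DRE-driven, AHR-inducible firefly luciferase reporter were prestimulated with the endogenous agonist kynurenic acid before compound addition. Luciferase activity was measured by luminescence and normalized to positive and negative controls, with cells lacking kynurenic acid serving as full-inhibition control. Repeat tests are reported as mean or median.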

| IC50 [nM] | Structure (SMILES) |
| --- | --- |
| 68.6 | COc1ccc(-c2nc3c4cccc(S(C)(=N)=O)c4nc(N[C@@H]4CCCCNC4=O)n3n2)cc1 (mixture of isomers) [Example 853, (3R)-3-{[7-(S-methanesulfonimidoyl)-2-(4-methoxyphenyl)[1,2,4]triazolo[1,5-c]quinazolin-5-yl]amino}azepan-2-one] |
| 110 | C[C@@H](Nc1nc2c(C(F)(F)F)cccc2c2nc(-c3cnn(C)c3)nn12)C(=O)N1CCC(N(C)C)C1 (mixture of isomers) [Example 876, (2R)-1-[(3R/S)-3-(dimethylamino)pyrrolidin-1-yl]-2-{[2-(1-methyl-1H-pyrazol-4-yl)-7-(trifluoromethyl)[1,2,4]triazolo[1,5-c]quinazolin-5-yl]amino}propan-1-one] |

Same assay, conditions: mouse Hepa 1c1c7 cells, 200 μM kynurenic acid, 20 hours, read-out: AHR Antagonism Mouse IC50

| IC50 [nM] | Structure (SMILES) |
| --- | --- |
| 3.63 | C[S+]([O-])c1ccccc1-c1nc2c3ccccc3nc(N[C@@H]3CCCCNC3=O)n2n1 (mixture of isomers) [Example 648, (3R)-3-[(2-{2-[methanesulfinyl]phenyl}[1,2,4]triazolo[1,5-c]quinazolin-5-yl)amino]azepan-2-one] |
